Experiments:
[1] = Cmax in healthy human at 1000 mg, iv administered as single dose as 1 hr iv infusion; format: ADME, organism-based; design: dose 1000 mg, route intravenous; settings: in vivo
[2] = Clearance in healthy human at 250 mg, iv administered as single dose as 1 hr iv infusion; format: ADME, organism-based; settings: in vivo
[3] = Renal clearance in healthy human at 500 mg, iv administered as single dose as 1 hr iv infusion; format: ADME, organism-based, Kidney; settings: in vivo, read-out: CL_renal
[4] = Volume of distribution at steady state in healthy human at 250 mg, iv administered as single dose as 1 hr iv infusion; format: ADME, organism-based; settings: in vivo
[5] = Volume of distribution at steady state in healthy human at 1500 mg, iv administered as single dose as 1 hr iv infusion; format: ADME, organism-based; settings: in vivo
[6] = Drug recovery in urine of healthy human at 250 mg, iv administered as single dose as 1 hr iv infusion after 24 hrs; format: ADME, organism-based; settings: read-out: Activity
[7] = Mean residence time in healthy human at 250 mg, iv administered as single dose as 1 hr iv infusion; format: ADME, organism-based; settings: in vivo
[8] = Mean residence time in healthy human at 2000 mg, iv administered as single dose as 1 hr iv infusion; format: ADME, organism-based; settings: in vivo
[9] = system: Homo sapiens; experiment: Toxicity in healthy human assessed as occurrence of vulvo-vaginal pruritus at 1500 mg, iv administered as single dose as 1 hr iv infusion; format: organism-based; settings: in vivo
[10] = Cmax in healthy human at 1500 mg, iv administered as 1 hr infusion every 12 hrs for 10 days measured on day 10; format: ADME, organism-based; design: dose 1500 mg, route intravenous; settings: in vivo
[11] = Renal clearance in healthy human at 1000 mg, iv administered as 1 hr infusion every 8 hrs for 10 days measured on day 1; format: ADME, organism-based, Kidney; settings: in vivo, read-out: CL_renal
[12] = Volume of distribution at steady state in healthy human at 1000 mg, iv administered as 1 hr infusion every 8 hrs for 10 days measured on day 1; format: ADME, organism-based; settings: in vivo
[13] = Half-life in plasma of healthy human 1500 mg, iv administered as 1 hr infusion every 12 hrs for 10 days measured on day 1; format: ADME, organism-based
[14] = Half-life in plasma of healthy human 1500 mg, iv administered as 1 hr infusion every 12 hrs for 10 days measured on day 10; format: ADME, organism-based
[15] = Drug recovery in urine of healthy human at 500 mg, iv administered as 1 hr infusion every 8 hrs for 10 days measured on day 1; format: ADME, organism-based; settings: read-out: Activity

Cn1c(N)c(NC(=O)NCCN)c[n+]1CC1=C(C(=O)O)N2C(=O)[C@@H](NC(=O)/C(=N\OC(C)(C)C(=O)[O-])c3nsc(N)n3)[C@H]2SC1 [CEFTOLOZANE]
Cmax [1]: 58.4 µg/mL | clearance [2]: 104 mL/min | CL renal at 1 h [3]: 90.4 mL/min | Vd [4]: 13.1 L | Vd [5]: 17.6 L | dose excreted at 24 h [6]: 97.1% | MRT [7]: 2.09 h | MRT [8]: 2.54 h | Activity [9]: Non-toxic | Cmax [10]: 82.6 µg/mL | CL renal [11]: 112 mL/min | Vd [12]: 17.8 L | half-life [13]: 163 min | half-life [14]: 140 min | dose excreted at 1 day [15]: 82.9%
